Results taken from patent US20100022614A1, “PHARMACEUTICAL COMPOSITION FOR EXTERNAL APPLICATION AND ADHESIVE SKIN PATCH” (priority 2006, published 2010).

Columns and labels:
Assay type in all cases: physicochemical
[1] = Drug stability test (Test Example 7, FIG. 6): tulobuterol in acetic acid with NMP; settings: 0.1 g drug in 5 g acetic acid with 1 g or 10 g NMP; autoclaving 120° C.
Description: By a similar procedure to Test Example 5 except that a mixed solution of 0.1 g of tulobuterol and 5 g of acetic acid was used, the mass of the drug being present in each solvent system was measured.

[2] = Drug stability test (Test Example 6, FIG. 5): diclofenac sodium in lactic acid or glycerin with NMP; settings: autoclaving 120° C.
Description: By a similar procedure to Test Example 5 except that a mixed solution of 0.1 g of diclofenac sodium and 5 g of lactic acid or glycerin was used, the mass of the drug being present in each solvent system was measured.

[3] = Drug stability test (Test Example 5, FIG. 4): loxoprofen sodium or felbinac in lactic acid with NMP; settings: 0.1 g drug in 5 g lactic acid with 1 g or 10 g NMP; autoclaving 120° C.
Description: By a similar procedure to Test Example 3 except that either 1 g or 10 g of N-methyl-2-pyrrolidone was further mixed with a mixed solution of 0.1 g of loxoprofen sodium or felbinac and 5 g of lactic acid, the mass of the drug being present in each solvent system was measured.

[4] = Drug solubility test (Test Example 1): amount of LOX dissolved in 1 g of additive, visual observation
Description: The amount of dissolution of loxoprofen sodium (LOX) with respect to 1 g of each additive was determined by visual observation.

[5] = Drug stability test (Test Example 2): loxoprofen sodium in solvent systems left at 60° C., HPLC; settings: for Loxoprofen sodium content (%) (vs. initial value): 60° C.
Description: To each solvent was added 0.1 g of loxoprofen sodium, and the mixture was stirred at 25° C. overnight. The stirred mixture was filtrated to obtain a filtrate for use as a sample solution, and this sample solution was left to stand at 60° C. Thereafter, the mass of loxoprofen sodium being present in each solvent system was measured with high performance liquid chromatography (HPLC) 0 months later (initial value), 0.5 months later, and 1.0 month later. The results are shown in FIG. 1 and Table 2 in terms of the ratio of each measurement with respect to the initial value.

[6] = Drug stability test (Test Example 3): loxoprofen sodium in solvent systems, autoclaving at 120° C.; settings: for Loxoprofen sodium content (%) (vs. initial value): autoclaving 120° C.
Description: To each solvent was added 0.1 g of loxoprofen sodium, and the mixture was stirred at 25° C. overnight. The stirred mixture was filtrated to obtain a filtrate for use as a sample solution. This sample solution was subjected to an autoclaving treatment at 120° C., and the mass of loxoprofen sodium being present in each solvent system was measured at time 0 (initial value), 2 hrs later, 4 hrs later, and 6 hrs later. The results are shown in FIG. 2 and Table 3 in terms of the ratio of each measurement with respect to the initial value. The measurement procedure was similar to Test Example 2.

[7] = Drug stability test (Test Example 4, FIG. 3): loxoprofen/lactic acid with additives, with or without NMP; settings: for stability of LOX (in words): NMP added to LOX
Description: By a similar procedure to Test Example 3 except that 1 g of an additive (aspartic acid, isostearic acid, disodium edetate, a carboxyvinyl polymer or polyvinylpyrrolidone) was added to a mixed solution of 0.1 g of loxoprofen and 5 g of lactic acid, the mass of loxoprofen sodium being present in each solvent system was measured.
In addition, by a similar procedure to Test Example 3 except that 1 g of N-methyl-2-pyrrolidone, and 1 g of an additive (aspartic acid, isostearic acid, disodium edetate, the carboxyvinyl polymer or polyvinylpyrrolidone) were further mixed, the mass of loxoprofen sodium being present in each solvent system was measured. The results are shown in FIG. 3 in terms of the ratio of each measurement with respect to the initial value.

## CC(C)(C)NCC(O)c1ccccc1Cl (centres unmarked) [tulobuterol]
[1]
  stability of the drug (FIG. 6, in words): greatly improves

## O=C(O)Cc1ccccc1Nc1c(Cl)cccc1Cl [diclofenac sodium]
[2]; 0.1 g drug in 5 g glycerin with 1 g or 10 g NMP
  reduction of stability caused by blending glycerin, effect of adding NMP (FIG. 5): compensated
[2]; 0.1 g drug in 5 g lactic acid with 1 g or 10 g NMP
  reduction of stability caused by blending lactic acid, effect of adding NMP (FIG. 5): greatly compensated

## O=C(O)Cc1ccc(-c2ccccc2)cc1 [felbinac]
[3]
  stability of the drug (FIG. 4, in words): significantly improved

## CC(C(=O)O)c1ccc(CC2CCCC2=O)cc1 (centres unmarked) [LOX, loxoprofen sodium]
[4]; lactic acid and N-methyl-2-pyrrolidone used in combination
  amount of dissolution of loxoprofen sodium (in words): markedly great
[4]; lactic acid or N-methyl-2-pyrrolidone used alone, or other composition
  amount of dissolution of loxoprofen sodium (in words): significantly small
[4]; per 1 g of additive: 10% Citric anhydride + NMP, mixing ratio 1:10
  Amount of dissolved LOX: 0.1 g
[4]; per 1 g of additive: 20% Citric anhydride + NMP, mixing ratio 1:5
  Amount of dissolved LOX: 0.1 g
[4]; per 1 g of additive: 89% Phosphoric acid
  Amount of dissolved LOX: 0.25 g
[4]; per 1 g of additive: Behenic acid + NMP, mixing ratio 1:1
  Amount of dissolved LOX: 0 g
[4]; per 1 g of additive: Cetyl lactate + NMP, mixing ratio 1:4
  Amount of dissolved LOX: 0 g
[4]; per 1 g of additive: Crotamiton
  Amount of dissolved LOX: 0 g
[4]; per 1 g of additive: Isostearic acid + NMP, mixing ratio 1:1
  Amount of dissolved LOX: 0 g
[4]; per 1 g of additive: L-menthol + NMP, mixing ratio 1:1
  Amount of dissolved LOX: 0 g
[4]; per 1 g of additive: Lactic acid
  Amount of dissolved LOX: 0.25 g
[4]; per 1 g of additive: Lactic acid + NMP, mixing ratio 1:2
  Amount of dissolved LOX: 1.5 g
[4]; per 1 g of additive: Malic acid + NMP, mixing ratio 1:4
  Amount of dissolved LOX: 0 g
[4]; per 1 g of additive: Myristic acid + NMP, mixing ratio 1:10
  Amount of dissolved LOX: 0 g
[4]; per 1 g of additive: NMP
  Amount of dissolved LOX: 0 g
[4]; per 1 g of additive: Oleyl alcohol
  Amount of dissolved LOX: 0 g
[4]; per 1 g of additive: Peppermint oil
  Amount of dissolved LOX: 0 g
[4]; per 1 g of additive: Phosphoric acid (89%) + NMP, mixing ratio 1:2
  Amount of dissolved LOX: 0 g
[4]; per 1 g of additive: Polyethylene glycol 400
  Amount of dissolved LOX: 0.25 g
[4]; per 1 g of additive: Stearic acid + NMP, mixing ratio 1:1
  Amount of dissolved LOX: 0 g
[4]; per 1 g of additive: Tartaric acid + NMP, mixing ratio 1:2
  Amount of dissolved LOX: 0 g
[4]; per 1 g of additive: Triacetin
  Amount of dissolved LOX: 0 g
[5]; solvent system Conc. glycerin 5 g, 0.5 months later
  Loxoprofen sodium content (%) (vs. initial value): 87.2%
[5]; solvent system Conc. glycerin 5 g, 1.0 month later
  Loxoprofen sodium content (%) (vs. initial value): 82.4%
[5]; solvent system Lactic acid 5 g + NMP0.1 g, 0.5 months later
  Loxoprofen sodium content (%) (vs. initial value): 88.2%
[5]; solvent system Lactic acid 5 g + NMP0.1 g, 1.0 month later
  Loxoprofen sodium content (%) (vs. initial value): 82.7%
[5]; solvent system Lactic acid 5 g + NMP1.0 g, 0.5 months later
  Loxoprofen sodium content (%) (vs. initial value): 91.3%
[5]; solvent system Lactic acid 5 g + NMP1.0 g, 1.0 month later
  Loxoprofen sodium content (%) (vs. initial value): 85.8%
[5]; solvent system Lactic acid 5 g + NMP10.0 g, 0.5 months later
  Loxoprofen sodium content (%) (vs. initial value): 99.8%
[5]; solvent system Lactic acid 5 g + NMP10.0 g, 1.0 month later
  Loxoprofen sodium content (%) (vs. initial value): 99.4%
[5]; solvent system Lactic acid 5 g, 0.5 months later
  Loxoprofen sodium content (%) (vs. initial value): 83.1%
[5]; solvent system Lactic acid 5 g, 1.0 month later
  Loxoprofen sodium content (%) (vs. initial value): 79.9%
[5]; solvent system Peppermint oil 5 g, 0.5 months later
  Loxoprofen sodium content (%) (vs. initial value): 83.2%
[5]; solvent system Peppermint oil 5 g, 1.0 month later
  Loxoprofen sodium content (%) (vs. initial value): 77.7%
[5]; solvent system of conc. glycerin, “polysorbate 80”, mentha oil or lactic acid
  time dependent lowering of the content of loxoprofen sodium (in words): greatly exhibited
[5]; solvent system “Polysorbate 80 g” 5 g, 0.5 months later
  Loxoprofen sodium content (%) (vs. initial value): 83.5%
[5]; solvent system “Polysorbate 80 g” 5 g, 1.0 month later
  Loxoprofen sodium content (%) (vs. initial value): 69.1%
[6]; solvent system Lactic acid 5 g + NMP0.1 g, 2 hrs
  Loxoprofen sodium content (%) (vs. initial value): 96.0%
[6]; solvent system Lactic acid 5 g + NMP0.1 g, 4 hrs
  Loxoprofen sodium content (%) (vs. initial value): 90.7%
[6]; solvent system Lactic acid 5 g + NMP0.1 g, 6 hrs
  Loxoprofen sodium content (%) (vs. initial value): 87.4%
[6]; solvent system Lactic acid 5 g + NMP1.0 g, 2 hrs
  Loxoprofen sodium content (%) (vs. initial value): 98.0%
[6]; solvent system Lactic acid 5 g + NMP1.0 g, 4 hrs
  Loxoprofen sodium content (%) (vs. initial value): 94.2%
[6]; solvent system Lactic acid 5 g + NMP1.0 g, 6 hrs
  Loxoprofen sodium content (%) (vs. initial value): 91.9%
[6]; solvent system Lactic acid 5 g + NMP10.0 g, 2 hrs
  Loxoprofen sodium content (%) (vs. initial value): 99.4%
[6]; solvent system Lactic acid 5 g + NMP10.0 g, 4 hrs
  Loxoprofen sodium content (%) (vs. initial value): 99.8%
[6]; solvent system Lactic acid 5 g + NMP10.0 g, 6 hrs
  Loxoprofen sodium content (%) (vs. initial value): 99.6%
[6]; solvent system Lactic acid 5 g, 2 hrs
  Loxoprofen sodium content (%) (vs. initial value): 94.8%
[6]; solvent system Lactic acid 5 g, 4 hrs
  Loxoprofen sodium content (%) (vs. initial value): 90.3%
[6]; solvent system Lactic acid 5 g, 6 hrs
  Loxoprofen sodium content (%) (vs. initial value): 86.8%
[6]; solvent system including lactic acid and N-methyl-2-pyrrolidone (Tables 2 to 3, FIGS. 1 to 2)
  time dependent lowering of the content of loxoprofen sodium (in words): markedly suppressed
[7]; lactic acid and adipic acid
  stability of LOX (in words): favorable stability
[7]; lactic acid and benzoic acid
  stability of LOX (in words): favorable stability
[7]; lactic acid 5 g + 1 g additive having a carboxylic acid group (aspartic acid, isostearic acid, disodium edetate, carboxyvinyl polymer), irrespective of the presence of NMP, 120° C.
  content of LOX versus control group without the additive (FIG. 3): almost a similar level to the LOX content in the control group
[7]; lactic acid 5 g + 1 g polyvinylpyrrolidone, irrespective of the presence of NMP, 120° C.
  content of LOX versus control group (FIG. 3): increased to a level higher than the content of LOX in the control group
[3]
  stability of the drug (FIG. 4, in words): significantly improved
